Measurements from PubChem BioAssay (NCI).
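Five compound concentrations were applied to cells in 96-well plates for 48 hours; endpoints were derived by simple linear interpolation of the resulting dose-response curve. Abbreviation: GI50, concentration required for 50% inhibition of growth. Definition used: TGI = concentration required for complete inhibition of growth.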

Columns and labels:
Test in all cases: NCI-60 cell line screen, 48 h
A549 NSCLC = system: A549 NSCLC
COLO 205 colon = system: COLO 205 colon
HCT-116 colon = system: HCT-116 colon
HL-60(TB) leukemia = system: HL-60(TB) leukemia
K-562 leukemia = system: K-562 leukemia
OVCAR-4 ovarian = system: OVCAR-4 ovarian
SK-OV-3 ovarian = system: SK-OV-3 ovarian
TK-10 renal = system: TK-10 renal
CCRF-CEM leukemia = system: CCRF-CEM leukemia
PC-3 prostate = system: PC-3 prostate

Compound | TGI (A549 NSCLC) [µM] | TGI (COLO 205 colon) [µM] | TGI (HCT-116 colon) [µM] | TGI (HL-60(TB) leukemia) [µM] | TGI (K-562 leukemia) [µM] | TGI (OVCAR-4 ovarian) [µM] | TGI (SK-OV-3 ovarian) [µM] | TGI (TK-10 renal) [µM] | GI50 (A549 NSCLC) [µM] | GI50 (CCRF-CEM leukemia) [µM] | TGI (CCRF-CEM leukemia) [µM] | GI50 (COLO 205 colon) [µM] | GI50 (HCT-116 colon) [µM] | GI50 (HL-60(TB) leukemia) [µM] | GI50 (K-562 leukemia) [µM] | GI50 (OVCAR-4 ovarian) [µM] | GI50 (SK-OV-3 ovarian) [µM] | GI50 (TK-10 renal) [µM] | GI50 (PC-3 prostate) [µM] | TGI (PC-3 prostate) [µM]
CCOc1cccc2sc(N)nc12 | > 100 | > 100 | > 100 | > 100 | > 100 | > 100 | > 100 | > 100 |  |  |  |  |  |  |  |  |  |  |  | 
CC[C@@]1(O)C(=O)OCc2c1cc1n(c2=O)Cc2cc3c([N+](=O)[O-])c(O)ccc3nc2-1 | 18.3 | 27.3 | 7.11 | 1.3 | > 100 | 8.73 | 25 | > 85.6 | 0.426 | < 0.026 | 0.469 | 3.56 | 0.431 | 0.13 | 0.84 | 2.22 | 0.614 | 19.5 |  | 
CN1C(=O)C(C)(C)NS1(=O)=O | > 100 | > 100 | > 100 | > 100 | > 100 | > 100 | > 100 | > 100 |  |  | > 100 |  |  |  |  |  |  |  |  | 
Cc1cc(N(CCC#N)CCC#N)ccc1/C=C(\NC(=O)/C=C/c1ccccc1)NC(=O)Nc1ccccc1C | > 100 | > 100 | > 100 | > 100 | > 100 | > 100 |  |  |  |  | > 100 |  |  |  |  |  |  |  |  | 
C[C@]12CC[C@H](OC(=O)Cc3ccc(N(CCCl)CCCl)cc3)CC1CC[C@@H]1C2CC[C@]2(C)NC(=O)CCC12 (stereo partly specified) | 37.5 | 18.4 | 18.5 | 6.06 | 24.8 | 28.9 | 33.8 | 44.4 |  |  | 18 |  |  |  |  |  |  |  |  | 
COc1ccc(Nc2[nH]n(C3=Nc4ccccc4Sc4ccccc43)c(=O)c2C#N)cc1 | > 100 | 3.35 | 12 |  |  | > 100 | 54.1 | 41 | 1.62 | 1.19 | > 100 | 1.51 | 1.33 |  |  | 0.803 | 5.9 | 3.81 | 0.676 | > 100
O=c1/c(=C/c2ccccc2O)sc2nc3ccccc3n12 | > 100 |  | > 100 | 26.8 | 99.5 | > 100 |  | > 100 |  |  | 45.6 |  |  |  |  |  |  |  |  | 
O=C(/C=C/c1ccc[nH]1)c1ccccc1 | > 100 | > 100 | > 100 | > 100 | > 100 | > 100 | > 100 | > 100 |  |  | > 100 |  |  |  |  |  |  |  |  | 
COC(=O)c1ccc(CS(=O)(=O)c2ccccc2)cc1 | > 100 | > 100 | > 100 | > 100 | > 100 | > 100 | > 100 | > 100 |  |  | > 100 |  |  |  |  |  |  |  |  | 
COc1cccc(-c2cc(=O)c3cc(C)c(C)c(C(=O)O)c3o2)c1 | > 100 | > 100 | > 100 | > 100 | > 100 | > 100 | > 100 | > 100 |  |  | > 100 |  |  |  |  |  |  |  |  | 
COc1ccc(C(=O)OC2C(OC3C(O)COC(O[C@H]4C[C@H]5[C@@H]6CC=C7C[C@@H](O)CC[C@]7(C)[C@H]6CC[C@]5(C)[C@H]4[C@H](C)C(=O)CCC(C)C)C3OC(=O)C(C)C)OCC(O)C2O)cc1 (stereo partly specified) | 4.58 | 0.325 | 3.25 |  | 0.516 | 5.12 | 1.52 | 6.24 | 0.0224 | 0.00574 | 0.0317 | 0.0575 | 0.0107 |  | 0.0127 | 0.295 | 0.0127 | 0.411 | 0.00821 | 0.446
Cc1ccc2oc(=O)cc(CC(=O)O)c2c1 | > 100 | > 100 | > 100 | > 100 | > 100 | > 100 | > 100 | > 100 |  |  | > 100 |  |  |  |  |  |  |  |  | 
N=C(N)c1ccc(CS(=O)(=O)F)cc1 | > 100 | > 100 | > 100 |  | > 100 | > 100 | > 100 | > 100 | > 100 |  |  | > 100 | > 100 |  | > 100 | > 100 | > 100 | > 100 | > 100 | > 100
CCOC(=O)C1Nc2ccc([N+](=O)[O-])cc2[C@H]2OCC[C@@H]12 (stereo partly specified) | > 100 | > 100 | > 100 | > 100 | > 100 | > 100 | > 100 | > 100 |  |  | > 100 |  |  |  |  |  |  |  |  | 
Nc1nc2ccccc2c2[nH]c3ccccc3c12 | 2.37 | 2.33 | 1.83 | 5.73 |  | 3.52 | 18.9 | 4.18 | 1.09 |  |  | 1.07 | 0.499 | 1.98 |  | 1.5 | 4.91 | 1.57 |  | 
CC(C)COC(=O)N1N=NC2C3CC(=O)C(O3)C21 (stereo unspecified) | > 100 | > 100 | > 100 |  | > 100 | > 100 | > 100 | > 100 |  |  | > 100 |  |  |  |  |  |  |  |  | 
CC(=O)OC1COC(n2c(O)c(N=Nc3ccc([N+](=O)[O-])cc3)c3cc(Br)c([N+](=O)[O-])cc32)C(OC(C)=O)C1OC(C)=O (stereo unspecified) | > 100 | > 100 | > 100 | > 100 | > 100 | > 100 | > 100 | > 100 |  |  | > 100 |  |  |  |  |  |  |  |  | 
C=C(c1ccccc1)[C@@]1(O)CCCC[C@H]1NC(c1ccccc1)c1ccccc1 | 26.2 | 28 | 20.5 | 5.95 | 29.1 | 34.5 | 44.2 | 32.5 |  |  | 18.7 |  |  |  |  |  |  |  |  | 
CC(C)(C)c1cc(O)c2c(c1O)C(=O)CCC2 | > 100 | > 100 | > 100 | 43.9 | > 100 | > 100 | > 100 | > 100 |  |  | > 100 |  |  |  |  |  |  |  |  | 
CN(C(=N)c1ccccc1)c1ccccc1 | > 100 | > 100 | > 100 | > 100 | > 100 | > 100 | > 100 | > 100 |  |  | > 100 |  |  |  |  |  |  |  |  | 
